Drawing on patent US9561231B2 (AbbVie Inc., priority 2012, dated 2017), this text covers EC50 and Ki for 23 molecules.

Assay [1] concerns breast cancer cell line MX-1. The assay can be described thus: MX-1 cell line proliferation assay (3-day). The assay is classed as cell-based. To be noted: MX-1 cells, Cell Titer Glo, read-out: Cellular proliferation: EC50. As for the experimental part:
The impact of compounds of the Examples on cancer cell proliferation was determined using the breast cancer cell line MX-1 (ATCC) in a 3-day proliferation assay. MX-1 cells were maintained in RPMI supplemented with 10% FBS at 37° C. and an atmosphere of 5% CO2. For compound testing, MX-1 cells were plated in 96-well black bottom plates at a density of 5000 cells/well in 90 μL of culture media and incubated at 37° overnight to allow cell adhesion and spreading. Compound dilution series were prepared in DMSO via a 3-fold serial dilution from 3 mM to 0.1 μM. The DMSO dilution series were then diluted 1:100 in phosphate buffered saline, and 10 μL of the resulted solution were added to the appropriate wells of the MX-1 cell plate. The final compound concentrations in the wells were 3, 1, 0.3, 0.1, 0.03, 0.01, 0.003, 0.001, 0.0003 and 0.0001 μM.
Luminescence readings from the Cell Titer Glo assay were normalized to the DMSO treated cells and analyzed using the GraphPad Prism software with sigmoidal curve fitting to obtain EC50s.

In assay [2] the target is T1, second (BD2: amino acids E352-E168) bromodomain of BRD4 (Homo sapiens, UniProt O60885).
T1 construct: protocol
In words: TR-FRET bromodomain binding assay, BRD4 BD2. To be noted: Ki calculated from IC50, probe Kd and probe concentration, read-out: TR-FRET Binding Ki: BRD4 (BDII_E352-M457). Put shortly: (§1)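 His-tagged BRD4 bromodomain competed against an Alexa647-labeled BET-inhibitor probe by TR-FRET in 20 mM sodium phosphate pH 6.0, 50 mM NaCl, 1 mM EDTA, 0.01% Triton X-100, 1 mM DTT.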

The target of assay [3] is T2, first (BD1: amino acids K57-E168) bromodomain of BRD4 (Homo sapiens, UniProt O60885).
T2 construct: His-tagged first (BD1: amino acids K57-E168)
In words: TR-FRET bromodomain binding assay, BRD4 BD1. To be noted: Ki calculated from IC50, probe Kd and probe concentration, read-out: TR-FRET Binding Ki: BRD4 (BDI_K57-E168). Put shortly:
as §1

Setting [4] is: Homo sapiens, MX1, 72 h incubation.
The mark [5] stands for this setting: TR-FRET assay protocol (A-G, compound concentration range).
Setting [6] is: Homo sapiens, MX1, 72 hours with compound.
The mark [7] stands for this setting: TR-FRET assay protocol (D, E or G) per compound.

Like-named read-outs stand apart in the source and are kept apart here.

The Ki is the equilibrium dissociation constant of an inhibitor or competing ligand from its target. Take `CCS(=O)(=O)Nc1ccc(Oc2ccc(F)cc2F)c(-c2cn(C)c(=O)cc2OC2CC3(CNC3)C2)c1` [Example 326, N-{3-[4-(2-azaspiro[3.3]hept-6-yloxy)-1-methyl-6-oxo-1,6-dihydropyridin-3-yl]-4-(2,4-difluorophenoxy)phenyl}ethanesulfonamide]: the EC50 in assay [1] (setting [4]) came to 2980 nM. The values for the Ki in assay [2] (setting [5]) and in assay [3] (setting [5]) were 17.5 nM and 2.61 nM, respectively.
The corresponding values for `COC(=O)CCc1ccc(-c2cc(=O)n(C)nc2-c2ccccc2Oc2ccccc2)cc1` [Example 92, methyl 3-{4-[1-methyl-6-oxo-3-(2-phenoxyphenyl)-1,6-dihydropyridazin-4-yl]phenyl}propanoate] are 1130 nM, 455 nM and 770 nM.
For `CCOc1cc(=O)n(C)cc1-c1cc(NS(=O)(=O)c2ccccc2)ccc1Oc1ccc(F)cc1F` [Example 344, N-[4-(2,4-difluorophenoxy)-3-(4-ethoxy-1-methyl-6-oxo-1,6-dihydropyridin-3-yl)phenyl]benzenesulfonamide], in that order: 271 nM, 5.07 nM and 23.1 nM.
For `C/C=C/c1cc(=O)n(C)cc1-c1cc(NS(=O)(=O)CC)ccc1Oc1ccc(F)cc1F` [Example 329, N-[4-(2,4-difluorophenoxy)-3-{1-methyl-6-oxo-4-[(1E)-prop-1-en-1-yl]-1,6-dihydropyridin-3-yl]phenyl}ethanesulfonamide], in that order: 22.7 nM, 1.71 nM and 2.98 nM.
Consider `CN1CCN(Cc2ccc(-c3cc(=O)n(C)cc3-c3cc(NS(C)(=O)=O)ccc3Oc3ccc(F)cc3F)cc2)CC1` [Example 273, N-[4-(2,4-difluorophenoxy)-3-(1-methyl-4-{4-[(4-methylpiperazin-1-yl)methyl]phenyl}-6-oxo-1,6-dihydropyridin-3-yl)phenyl]methanesulfonamide], for which the EC50 in assay [1] (setting [4]) was 107 nM. Further, the values for the inhibitory constant (Ki) in assay [2] (setting [5]) and in assay [3] (setting [5]) were 2.45 nM and 4.58 nM, respectively.
For `CCOc1cc(=O)n(C)cc1-c1cc(NS(=O)(=O)c2ccc(C(C)C)cc2)ccc1Oc1ccc(F)cc1F` [Example 347, N-[4-(2,4-difluorophenoxy)-3-(4-ethoxy-1-methyl-6-oxo-1,6-dihydropyridin-3-yl)phenyl]-4-(propan-2-yl)benzenesulfonamide], in that order: 1560 nM, 53.4 nM and 169 nM.
Consider `CCOc1cc(=O)n(C)cc1-c1cc(NC(=O)c2cncs2)ccc1Oc1ccc(F)cc1F` [Example 411, N-[4-(2,4-difluorophenoxy)-3-(4-ethoxy-1-methyl-6-oxo-1,6-dihydropyridin-3-yl)phenyl]-1,3-thiazole-5-carboxamide], for which the EC50 in assay [1] (setting [6]) turned out to be 254 nM. Moreover, the values for the Ki in assay [2] (setting [7]) and in assay [3] (setting [7]) were 47 nM and 61.3 nM, respectively.
For the molecule `Cn1cc(-c2cc(NS(C)(=O)=O)ccc2Oc2ccc(F)cc2)ccc1=O` [Example 232, N-[4-(4-fluorophenoxy)-3-(1-methyl-6-oxo-1,6-dihydropyridin-3-yl)phenyl]methanesulfonamide], the EC50 in assay [1] (setting [4]) turned out to be 357 nM. Also, the inhibition constant (Ki) in assay [2] (setting [5]) is 101 nM; in assay [3] (setting [5]), 27.8 nM.
For `CCOc1cc(=O)n(C)cc1-c1cc(NC(=O)CCC(C)C)ccc1Oc1ccc(F)cc1F` [Example 298, N-[4-(2,4-difluorophenoxy)-3-(4-ethoxy-1-methyl-6-oxo-1,6-dihydropyridin-3-yl)phenyl]-4-methylpentanamide], in that order: 637 nM, 54.5 nM and 143 nM.
On to `CCOc1cc(=O)n(C)cc1-c1cc(NS(=O)(=O)CC)ccc1Oc1ccc(C(F)(F)F)cc1` [Example 386, N-{3-(4-ethoxy-1-methyl-6-oxo-1,6-dihydropyridin-3-yl)-4-[4-(trifluoromethyl)phenoxy]phenyl}ethanesulfonamide], for which the EC50 in assay [1] (setting [6]) is 54.1 nM. Besides, the figures for the inhibition constant Ki in assay [2] (setting [7]) and in assay [3] (setting [7]) were 10.2 nM and 81.8 nM, respectively.
On to `Cn1cc(-c2cc(NS(C)(=O)=O)ccc2OC2CCCC2)ccc1=O` [Example 248, N-[4-(cyclopentyloxy)-3-(1-methyl-6-oxo-1,6-dihydropyridin-3-yl)phenyl]methanesulfonamide], for which the EC50 in assay [1] (setting [4]) worked out at 488 nM. Besides, the inhibition constant Ki is 4570 nM in assay [2] (setting [5]) and 156 nM in assay [3] (setting [5]).
For `CC(=O)Nc1ccc(-c2cc(=O)n(C)nc2-c2ccccc2Oc2ccccc2)cc1` [Example 105, N-{4-[1-methyl-6-oxo-3-(2-phenoxyphenyl)-1,6-dihydropyridazin-4-yl]phenyl}acetamide], the EC50 in assay [1] (setting [4]) was more than 3000 nM. The Ki in assay [2] (setting [5]) was 84.7 nM; in assay [3] (setting [5]), 516 nM.
For `CNS(=O)(=O)Nc1ccc(Oc2ccccc2)c(-c2ccc(=O)n(C)c2)c1` [Example 230, N-methyl-N′-[3-(1-methyl-6-oxo-1,6-dihydropyridin-3-yl)-4-phenoxyphenyl]sulfuric diamide], in that order: 395 nM, 48 nM and 56 nM.
In the case of `CCS(=O)(=O)Nc1ccc(Oc2ccc(F)cc2F)c(-c2cn(C)c(=O)cc2-c2cnn(CC(C)C)c2)c1` [Example 391, N-[4-(2,4-difluorophenoxy)-3-{1-methyl-4-[1-(2-methylpropyl)-1H-pyrazol-4-yl]-6-oxo-1,6-dihydropyridin-3-yl]phenyl}ethanesulfonamide], the EC50 in assay [1] (setting [6]) stood at 57.3 nM. Also, the figures for the Ki in assay [2] (setting [7]) and in assay [3] (setting [7]) were 4.59 nM and 9.05 nM, respectively.
Consider `CCOc1cc(=O)n(C)cc1-c1cc(S(C)(=O)=O)ccc1NCC1CC1` [Example 340, 5-{2-[(cyclopropylmethyl)amino]-5-(methylsulfonyl)phenyl}-4-ethoxy-1-methylpyridin-2(1H)-one], for which the EC50 in assay [1] (setting [4]) is 384 nM. The inhibition constant (Ki) is 251 nM in assay [2] (setting [5]) and 225 nM in assay [3] (setting [5]).
The corresponding values for `Cc1ccc(-c2cc(=O)n(C)nc2-c2cc(NS(C)(=O)=O)ccc2Oc2ccccc2)cc1` [Example 63, N-{3-[1-methyl-4-(4-methylphenyl)-6-oxo-1,6-dihydropyridazin-3-yl]-4-phenoxyphenyl}methanesulfonamide] are 739 nM, 23.9 nM and 85.2 nM.
In the case of `CCOc1cc(=O)n(C)cc1-c1cc(NC(=O)c2cc(Cl)ccc2Cl)ccc1Oc1ccc(F)cc1F` [Example 412, 2,5-dichloro-N-[4-(2,4-difluorophenoxy)-3-(4-ethoxy-1-methyl-6-oxo-1,6-dihydropyridin-3-yl)phenyl]benzamide], the EC50 in assay [1] (setting [6]) came out at 251 nM. The Ki in assay [2] (setting [7]) was 11.9 nM; in assay [3] (setting [7]), 28.9 nM.
On to “1-(2-chloro-5-fluorophenyl)-N-[4-(2,4-difluorophenoxy)-3-(4-ethoxy-1-methyl-6-oxo-1,6-dihydropyridin-3-yl)phenyl]methanesulfonamide [Example 350]”, for which, in assay [1] (72 h incubation), the EC50 was 1000 nM.
The same measure, in the same setting: then “N-[4-(2,4-difluorophenoxy)-3-(4-ethoxy-1-methyl-6-oxo-1,6-dihydropyridin-3-yl)phenyl]-1-phenylmethanesulfonamide [Example 311]”, with 1000 nM.
As for `COc1cc(=O)n(C)nc1-c1cc(NS(=O)(=O)N(C)C)ccc1Oc1ccccc1` [Example 31, N′-[3-(4-methoxy-1-methyl-6-oxo-1,6-dihydropyridazin-3-yl)-4-phenoxyphenyl]-N,N-dimethylsulfuric diamide], the EC50 in assay [1] (setting [4]) came to 420 nM. Besides, the Ki in assay [2] (setting [5]) is 46.5 nM.
For the molecule “N-{4-(4-cyanophenoxy)-3-[1-methyl-6-oxo-4-(2,2,2-trifluoroethoxy)-1,6-dihydropyridin-3-yl]phenyl}ethanesulfonamide [Example 374]”, the EC50 in assay [1] (72 hours with compound) came to 76.1 nM.
Same read-out and setting: then `CCS(=O)(=O)c1ccc(Oc2ccc(F)cc2F)c(-c2cc(=O)n(C)cc2OCC(F)(F)F)c1` [Example 398, 4-[2-(2,4-difluorophenoxy)-5-(ethylsulfonyl)phenyl]-1-methyl-5-(2,2,2-trifluoroethoxy)pyridin-2(1H)-one], with 450 nM.
For `Cn1nc(-c2ccccc2Oc2ccccc2)c(-c2ccc(N3CCCCC3)nc2)cc1=O` [Example 184, 2-methyl-6-(2-phenoxyphenyl)-5-[6-(piperidin-1-yl)pyridin-3-yl]pyridazin-3(2H)-one], the inhibition constant (Ki) is 1960 nM in assay [2] (setting [5]) and 2140 nM in assay [3] (setting [5]).
